# Data: patent US20250127741A1, “MEDICINAL COMPOSITION COMPRISING RIBOSE AND AMINO ACIDS” (MEE-HU PHARMA GMBH, priority 2021, published 2025)
# Tested on: resistant strain of E. Coli (O157.H7)
# Test: In vivo animal study #2: granuloma pouch model in Wistar rats, bacterial counts in pouch fluid
# Conditions: male Wistar rats; given alone every 12 h, six doses (co-trimoxazole 30 mg/kg i.p.; inventive composition 500 mg/kg p.o.); all time intervals
# Procedure: Male Wistar rats, weighing 200-250 g, were infected with a resistant strain of E. Coli (O157.H7) using the granuloma pouch model. Specifically, pouches were produced by injecting 30 ml of sterile filtered air followed by injection of 0.5 ml of 0.5% croton oil in sesame seed oil deep into the loose connective dorsal tissue. Two days later, approximately 10 ml of air were withdrawn, and after 2 more days, 2 ml of 1% peptone and 0.35% agar in saline solution were injected in the pouch. On day 10, rats were infected with 10^6 CFU of E. coli suspended in 1.5 ml of THB containing 2.5% gastric mucin and 0.35% agar.
# The rats were divided in groups of five rats, and the following drugs, either alone or concurrently administered, were administered every 12 h for three consecutive days, making a total of six doses, starting 24 h after infection: co-trimoxazole (Septrin, GlaxoSmithKline) 30 mg/kg (i.p) and the inventive composition 500 mg/kg (p.o) (the 500 mg referring to the weight of the lyophilisate of Table 1 contained in the amount of mixed solution administered). […]
# Samples (0.5 mL) of pouch fluid were withdrawn from each animal just before treatment (0 time), 3 h after the first dose, just before the last dose, 3 and 24 h after the last dose. […] The results represent the average values obtained from all the animals in the same group at the same intervals and expressed as log 10 CFU/ml. […]
substance,measurement,value
co-trimoxazole [cotrimoxazole],"bacterial counts in pouch fluid, difference to control group",no significant differences
